This note sets out measurements from US20250034147A1, “MDM2 DEGRADERS AND USES THEREOF” (Kymera Therapeutics, Inc., priority 2021, published 2025).

Structures are written as SMILES.

In one test the test system is RS411 cells. Description: Cell Viability CTG Assay. The note with it: Homo sapiens, RS4-11, CellTiter Glo (CTG) cell viability, read-out: Average external-IC50. The class given is cell-based. How it is done: Compounds or DMSO 60 nL were stamped to the cell plate as the platemap. RS411 cells were centrifuged at 800 rpm for 5 min, suspended with culture medium, and counted with Countess (Invitrogen). The cell density was adjusted to the recommend information. 30 μL of cell solution (1000 cells/well) was added to the assay plate as the platemap and 30 μL of media was added to column 2 and column 23 as the platemap. The plate was spun down briefly. The final concentration of the compounds started at 10 μM (3 fold dilution and 11 doses) and final DMSO concentration was 0.2%. The plate was spun down briefly and incubated at 37° C., 5% CO2 for 1 day. […] 30 μL CellTiter Glo reagent was added to each well and the plate was centrifuged at 1000 rpm for 30 sec. The plate was shaken for 1 min and centrifuged at 1000 rpm for 30 sec. The plate was incubated at RT for 10 min to stabilize the luminescent signal and the luminescence was read by EnVision.
The letter codes for IC50 indicate the concentration of compound required to affect 50% of cells: A (<0.005 μM), B (0.005-0.05 μM), C (0.05-0.5 μM), and D (>0.5 μM).
In general terms: In ATP-based viability assays light output follows the ATP content of the culture.

In the next test the target is T1, HiBiT-tagged MDM2 (Homo sapiens, UniProt Q00987).
T1 construct: expressed in transfected cells
Description: MDM2 HiBit HEK293T degradation. The note with it: HEK293T cells stably expressing C-terminally HiBiT-tagged MDM2; 4 h; read-out: MDM2 HiBit HEK293T degradation 4 h: Average external-Abs DC50. It counts as cell-based. How it is done:
HEK293T cells were grown overnight to 70-80% confluency in a 6-well plate in complete media (DMEM 10% FBS) in a 37° C. incubator with 5% CO2. Cells were transfected with 1 micrograms of C- or N-terminally HiBiT-tagged MDM2 constructs using Fugene 6 transfection reagent (Promega) as per manufacturer protocol. After overnight incubation at 37° C., growth media within the wells was replaced with selection media (DMEM+10% FBS+1 microgram/ml final concentration of Puromycin). Puromycin (selection antibiotic) concentrations required for complete cell kill were determined previously. Cells were monitored for the next 48h-96h to select for positively transfected cells. Surviving colonies were pooled and expanded in selection media. Expanded pools of HEK293T cells stably expressing C- and N-terminally HiBiT-tagged MDM2, were characterized using a MDM2 tool degrader and HaloPROTAC3 as positive control. HEK293T cells expressing C-terminally HiBiT-tagged MDM2 were subsequently used for assessment of degradation potencies for MDM2 degraders.
The letter codes for MDM2 degradation potency (DC50) include: A (<10 nM), B […], C (>100-1000 nM), and D (>1000 nM).
In general terms: HiBiT is a short tag that completes a luciferase, so light tracks the accessible tagged protein.

T1 sequence (Q00987 whole entry): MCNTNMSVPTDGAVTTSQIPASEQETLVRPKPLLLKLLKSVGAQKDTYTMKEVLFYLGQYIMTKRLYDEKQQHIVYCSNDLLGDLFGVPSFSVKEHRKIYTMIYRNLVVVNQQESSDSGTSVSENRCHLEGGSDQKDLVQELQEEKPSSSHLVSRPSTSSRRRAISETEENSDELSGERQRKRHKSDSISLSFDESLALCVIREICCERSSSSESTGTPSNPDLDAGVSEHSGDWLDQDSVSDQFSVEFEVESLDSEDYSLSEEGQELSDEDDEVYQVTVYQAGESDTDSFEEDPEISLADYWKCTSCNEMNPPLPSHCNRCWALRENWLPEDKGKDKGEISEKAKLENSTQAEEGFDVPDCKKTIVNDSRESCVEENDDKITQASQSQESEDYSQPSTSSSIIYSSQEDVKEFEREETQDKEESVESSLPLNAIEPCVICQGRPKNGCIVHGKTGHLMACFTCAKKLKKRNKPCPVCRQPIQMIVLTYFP

In general, IC50 refers to the point on the concentration scale where inhibition reaches its midpoint. Usually DC50 stands for the concentration at which degradation of the target reaches its halfway point. As to `Cn1c(=O)n([C@H]2CCC(=O)NC2=O)c2ccc(C3CCN(C(=O)[C@H]4CC[C@H](NC(=O)[C@@H]5NC6(CCCCC6)[C@@]6(C(=O)Nc7cc(Cl)ccc76)[C@H]5c5cccc(Cl)c5F)CC4)CC3)cc21` (single isomer, unassigned) [I-103], in the test with RS411 cells, the IC50 was less than 5 nM. Moreover, the DC50 at HiBiT-tagged MDM2 is less than 10 nM. For `Cn1c(=O)n([C@@H]2CCC(=O)NC2=O)c2ccc(C3CCN(C(=O)[C@H]4CC[C@H](NC(=O)[C@@H]5NC6(CCCCC6)[C@@]6(C(=O)Nc7cc(Cl)ccc76)[C@H]5c5cccc(Cl)c5F)CC4)CC3)cc21` (single isomer, unassigned) [I-104], in that order: less than 5 nM and less than 10 nM. For `CN1CCN(C[C@H]2CC[C@H](NC(=O)[C@@H]3NC4(CCCCC4)[C@@]4(C(=O)Nc5cc(Cl)ccc54)[C@H]3c3cccc(Cl)c3F)CC2)C[C@H]1CCc1ccc2c(c1)n(C)c(=O)n2C1CCC(=O)NC1=O` (some centres unmarked) [I-1], in that order: less than 5 nM and less than 10 nM. In the same order, the values of `COc1cc2c(cc1OC(C)C)[C@H](c1ccc(Cl)cc1)N(c1ccc(N(C)CC3CCN(CCCCc4ccc5c(c4)n(C)c(=O)n5C4CCC(=O)NC4=O)CC3)cc1)C(=O)C2` (some centres unmarked) [I-4] are less than 5 nM and 10 to 100 nM. In the case of `Cn1c(=O)n(C2CCC(=O)NC2=O)c2ccc(C3=CCN(C[C@H]4CC[C@H](NC(=O)[C@@H]5NC6(CCCCC6)[C@@]6(C(=O)Nc7cc(Cl)ccc76)[C@H]5c5cccc(Cl)c5F)CC4)CC3)cc21` (some centres unmarked) [I-5], the IC50 in the test on RS411 cells is less than 5 nM. Besides, the DC50 at HiBiT-tagged MDM2 was less than 10 nM. For `COc1cc2c(cc1OC(C)C)[C@H](c1ccc(Cl)cc1)N(c1ccc(N(C)C[C@H]3CC[C@H](N(CCS(C)(=O)=O)C(=O)CCCCc4ccc5c(c4)n(C)c(=O)n5C4CCC(=O)NC4=O)CC3)cc1)C(=O)C2` (some centres unmarked) [I-6], the IC50 in the test on RS411 cells is less than 5 nM. The DC50 at HiBiT-tagged MDM2 is 10 to 100 nM. For `CC1(C)CCC2(CC1)NC(C(=O)N[C@H]1CC[C@H](CN3CCN(CCC#Cc4ccn5c(N6CCC(=O)NC6=O)cnc5c4)CC3)CC1)[C@H](c1ccnc(Cl)c1F)[C@]21C(=O)Nc2cc(Cl)ccc21` (some centres unmarked) [I-7], in that order: 5 to 50 nM and less than 10 nM. With `Cn1c(=O)n(C2CCC(=O)NC2=O)c2ccc(C#CCC3(C(=O)O)CCN(C[C@H]4CC[C@H](NC(=O)[C@@H]5NC6(CCCCC6)[C@@]6(C(=O)Nc7cc(Cl)ccc76)[C@H]5c5cccc(Cl)c5F)CC4)CC3)cc21` (some centres unmarked) [I-8], the IC50 with RS411 cells lay in the range of 5 to 50 nM. Besides, the DC50 on HiBiT-tagged MDM2 is less than 10 nM. With `CC(C)[C@@H](CS(=O)(=O)C(C)C)N1C(=O)[C@@](C)(CC(=O)Nc2ccc(C(=O)N3CCN(CCCc4ccc5c(c4)n(C)c(=O)n5C4CCC(=O)NC4=O)CC3)cc2)C[C@H](c2cccc(Cl)c2)[C@H]1c1ccc(Cl)cc1` (some centres unmarked) [I-9], the IC50 with RS411 cells lay in the range of 5 to 50 nM. Further, the DC50 at HiBiT-tagged MDM2 is 10 to 100 nM.

Turning to `Cn1c(=O)n(C2CCC(=O)NC2=O)c2ccc(CN3CCC(OC4CCN(Cc5ccc(NC(=O)[C@@H]6NC7(CCCCC7)[C@@]7(C(=O)Nc8cc(Cl)ccc87)[C@H]6c6cccc(Cl)c6F)cc5)CC4)CC3)cc21` (some centres unmarked) [I-10], in the test on RS411 cells, the IC50 is less than 5 nM. Moreover, the DC50 on HiBiT-tagged MDM2 was less than 10 nM. In the same order, the values of `Cn1c(=O)n(C2CCC(=O)NC2=O)c2ccc(CC[C@H]3CN(C[C@H]4CC[C@H](NC(=O)[C@@H]5NC6(CCCCC6)[C@@]6(C(=O)Nc7cc(Cl)ccc76)[C@H]5c5cccc(Cl)c5F)CC4)CCO3)cc21` (some centres unmarked) [I-11] are less than 5 nM and less than 10 nM. In the same order, the values of `COc1cc2c(cc1OC(C)C)[C@H](c1ccc(Cl)cc1)N(c1ccc(N(C)C[C@H]3CC[C@H](N(CCC(=O)O)C(=O)CCCCc4ccc5c(c4)n(C)c(=O)n5C4CCC(=O)NC4=O)CC3)cc1)C(=O)C2` (some centres unmarked) [I-12] are more than 500 nM and 100 to 1000 nM. For the compound `CN1CCN(C[C@H]2CC[C@H](NC(=O)[C@@H]3NC4(CCCCC4)[C@@]4(C(=O)Nc5cc(Cl)ccc54)[C@H]3c3cccc(Cl)c3F)CC2)C[C@@H]1CCc1ccc2c(c1)n(C)c(=O)n2C1CCC(=O)NC1=O` (some centres unmarked) [I-13], in the test with RS411 cells, the IC50 was less than 5 nM. Moreover, the DC50 on HiBiT-tagged MDM2 is less than 10 nM. In the case of `CN1[C@@H](C(=O)N[C@H]2CC[C@H](CN3CCC(c4ccc5c(c4)n(C)c(=O)n5C4CCC(=O)NC4=O)CC3)CC2)[C@H](c2ccnc(Cl)c2F)[C@]2(C(=O)Nc3cc(Cl)ccc32)C12CCC(C)(C)CC2` (some centres unmarked) [I-14], in the test with RS411 cells, the half-maximal inhibitory concentration (IC50) was less than 5 nM. Further, the DC50 on HiBiT-tagged MDM2 is less than 10 nM. For `Cn1c(=O)n(C2CCC(=O)NC2=O)c2ccc(N3CCN(CC4CCN(C(=O)[C@H]5CC[C@H](NC(=O)[C@@H]6NC7(CCCCC7)[C@@]7(C(=O)Nc8cc(Cl)ccc87)[C@H]6c6cccc(Cl)c6F)CC5)CC4)CC3)cc21` (some centres unmarked) [I-15], in the test with RS411 cells, the IC50 was less than 5 nM. Further, the DC50 at HiBiT-tagged MDM2 is less than 10 nM.

`Cn1c(=O)n(C2CCC(=O)NC2=O)c2ccc(N3CC4(CCN(C[C@H]5CC[C@H](NC(=O)[C@@H]6NC7(CCCCC7)[C@@]7(C(=O)Nc8cc(Cl)ccc87)[C@H]6c6cccc(Cl)c6F)CC5)CC4)C3)cc21` (some centres unmarked) [I-16]: the IC50 in the test on RS411 cells is less than 5 nM. In addition, the DC50 on HiBiT-tagged MDM2 is less than 10 nM. On to `CN1[C@@H](C(=O)N[C@H]2CC[C@H](CN3CCC(c4ccc5c(c4)n(C)c(=O)n5C4CCC(=O)NC4=O)CC3)CC2)[C@H](c2cccc(Cl)c2F)[C@]2(C(=O)Nc3cc(Cl)ccc32)C12CCCCC2` (some centres unmarked) [I-17], for which, in the test on RS411 cells, the IC50 was less than 5 nM. For the same compound, at HiBiT-tagged MDM2, the DC50 is less than 10 nM. For `Cn1c(=O)n(C2CCC(=O)NC2=O)c2ccc(N3CCC(OC4CCN(C[C@H]5CC[C@H](NC(=O)[C@@H]6NC7(CCCCC7)[C@@]7(C(=O)Nc8cc(Cl)ccc87)[C@H]6c6cccc(Cl)c6F)CC5)CC4)CC3)cc21` (some centres unmarked) [I-18], in that order: less than 5 nM and less than 10 nM. For the compound `Cn1c(=O)n(C2CCC(=O)NC2=O)c2ccc(N3CC(N4CCN(C(=O)[C@H]5CC[C@H](NC(=O)[C@@H]6NC7(CCCCC7)[C@@]7(C(=O)Nc8cc(Cl)ccc87)[C@H]6c6cccc(Cl)c6F)CC5)CC4)C3)cc21` (some centres unmarked) [I-19], the IC50 in the test on RS411 cells was 5 to 50 nM. The DC50 on HiBiT-tagged MDM2 is less than 10 nM. In the same order, the values of `Cn1c(=O)n(C2CCC(=O)NC2=O)c2ccc(CCN3CCN(CCCN4CCC(NC(=O)[C@@H]5NC6(CCC(C)(C)CC6)[C@@]6(C(=O)Nc7cc(Cl)ccc76)[C@H]5c5ccnc(Cl)c5F)CC4)CC3)cc21` (some centres unmarked) [I-20] are less than 5 nM and less than 10 nM.

Regarding `Cn1c(=O)n(C2CCC(=O)NC2=O)c2ccc(CC[C@@H]3CN(C[C@H]4CC[C@H](NC(=O)[C@@H]5NC6(CCCCC6)[C@@]6(C(=O)Nc7cc(Cl)ccc76)[C@H]5c5cccc(Cl)c5F)CC4)CCO3)cc21` (some centres unmarked) [I-21], the 50% inhibitory concentration (IC50) with RS411 cells was less than 5 nM. Further, the DC50 at HiBiT-tagged MDM2 was less than 10 nM. On to `COc1cc2c(cc1OC(C)C)[C@H](c1ccc(Cl)cc1)N(c1ccc(N(C)CCC3CCN(CCCCC#Cc4cccn5c(N6CCC(=O)NC6=O)cnc45)CC3)cc1)C(=O)C2` [I-22], for which the IC50 in the test with RS411 cells was in the range of 50 to 500 nM. Also, on HiBiT-tagged MDM2, the DC50 was more than 1000 nM. For `Cn1c(=O)n(C2CCC(=O)NC2=O)c2ccc(CN3CCC(OC4CN(C(=O)[C@H]5CC[C@H](NC(=O)[C@@H]6NC7(CCCCC7)[C@@]7(C(=O)Nc8cc(Cl)ccc87)[C@H]6c6cccc(Cl)c6F)CC5)C4)CC3)cc21` (some centres unmarked) [I-23], in that order: less than 5 nM and less than 10 nM.

With `Cn1c(=O)n(C2CCC(=O)NC2=O)c2ccc(C3CN(C[C@H]4CC[C@H](NC(=O)[C@@H]5NC6(CCCCC6)[C@@]6(C(=O)Nc7cc(Cl)ccc76)[C@H]5c5cccc(Cl)c5F)CC4)C3)cc21` (some centres unmarked) [I-24], the IC50 with RS411 cells is less than 5 nM. For the same compound, the DC50 at HiBiT-tagged MDM2 was less than 10 nM. As for `Cn1c(=O)n(C2CCC(=O)NC2=O)c2ccc(C3CCN(C[C@H]4CC[C@H](NC(=O)[C@@H]5NC6(CCC(C)(C)CC6)[C@@]6(C(=O)Nc7cc(Cl)ccc76)[C@H]5c5ccnc(Cl)c5F)CC4)CC3)cc21` (some centres unmarked) [I-25], the IC50 with RS411 cells is less than 5 nM. For the same compound, the DC50 at HiBiT-tagged MDM2 was less than 10 nM. In the same order, the values of `CC1(C)CCC2(CC1)NC(C(=O)N[C@H]1CC[C@H](CN3CCN(CCCc4ccn5c(N6CCC(=O)NC6=O)cnc5c4)CC3)CC1)[C@H](c1ccnc(Cl)c1F)[C@]21C(=O)Nc2cc(Cl)ccc21` (some centres unmarked) [I-26] are less than 5 nM and less than 10 nM. For `COC(=O)C1(c2ccc3c(c2)n(C)c(=O)n3C2CCC(=O)NC2=O)CCN(C(=O)[C@H]2CC[C@H](NC(=O)[C@@H]3NC4(CCCCC4)[C@@]4(C(=O)Nc5cc(Cl)ccc54)[C@H]3c3cccc(Cl)c3F)CC2)CC1` (stereo partly drawn) [I-102, methyl 1-((1R,4r)-4-((3′R,4′S,5′R)-6″-chloro-4′-(3-chloro-2-fluorophenyl)-2″-oxodispiro[cyclohexane-1,2′-pyrrolidine-3′,3″-indoline]-5′-carboxamido)cyclohexane-1-carbonyl)-4-(1-(2,6-dioxopiperidin-3-yl)-3-methyl-2-oxo-2,3-dihydro-1H-benzo[d]imidazol-5-yl)piperidine-4-carboxylate], the IC50 with RS411 cells was less than 5 nM.
